The experiment concerns nerve-derived transglutaminase (TGN) purified from regenerating fish optic nerve, Carp (Cyprinus carpio), 55 kDa. The protocol:
The incorporation of radioactive putrescine to a carrier protein is an assay characteristic of enzymes of the transglutaminase family. Any carrier protein that has lysine residues may be used in the assay, such as casein, bovine serum albumin, etc.
In this example, activity characteristic of the nerve-derived transglutaminase was measured by incorporation of [^14C)putrescine into N,N-dimethylcasein (Chakrabarty et al., 1987). The purified TGN enzyme eluted from the TG-Ab affinity column with glycine in Example 3 was dialyzed for 2 hours in the presence of N,N-dimethylcasein (1 mg/ml), before being added to the reaction mixture. The reaction was initiated by addition of […] TGN ([…]), followed by incubation for 20 min at 37°C and terminated by the addition of ice-cold trichloroacetic acid (TCA; final concentration, 5%).
The enzyme activity was titrated with respect to temperature and pH and substrate concentration. […] Titration was carried out by measuring incorporation of [^14C]putrescine to caseine in the presence of TGN.

Among the data in patent EP0610475B1, “NERVE-DERIVED TRANSG[…] USEFUL FOR INDUCING NERVE REGENERATION” (YEDA RESEARCH AND DEVELOPMENT COMPANY, LTD., priority 1992, dated 1994) are Km values, retold here.

Like-named read-outs stand apart in the source and are kept apart here.

With `NCCCCN` [putrescine], the Km reads like this: (incorporation of [^14C]putrescine to caseine in the presence of TGN, calculated from titration of activity as a function of substrate concentration, 20 min at 37°C) 0.55 µM; (read-out: Km in the incorporation of putrescine, calculated as a function of substrate, list of TGN characteristics, unit inferred) 0.55 µM.
